The test system of assay [1] is store-operated calcium entry in RBL-2H3 cells. The assay can be described thus: Fluorescence (FLUO-4/FLIPR384) store-operated calcium entry screening assay. In kind it is cell-based, rat. To be noted: for IC50: Up slope parameter, RBL-2H3 cells; for inhibition at 10 µM: RBL-2H3; for inhibition at 10 µM / % Inhibition at 10 μM: cell line not stated. Here is the method:
Fluorescence-based assays were used for screening the compounds described herein, such as compounds of Formula (I) and Formula (II), which modulate intracellular calcium.
RBL-2H3 cells plated in 384-well plates were loaded for 45 min with FLUO-4-AM (2 μM final concentration) in HBSS. Cells were washed and placed in a nominally Ca^2+- and Mg^2+-free Hanks solution. One minute later, a test agent or vehicle was added. After a 15 minute incubation period, 1 μM thapsigargin (Tg) was added to inhibit the ER Ca^2+ pump and discharge intracellular Ca^2+ stores. Fifteen minutes after addition of Tg, store-operated calcium entry was initiated by adding external Ca^2+ to a final concentration of 1.8 mM and the cells monitored for a further 10-15 minutes. Calcium levels were monitored throughout the assay using a FLIPR^384 (Molecular Devices fluorimetric imaging plate reader for high throughput screening).
A similar screening assay procedure was used with HEK293 and RBL-2H3 cells.
The kinetic data from the FLIPR^384 were analyzed and then stored in a relational database (ActivityBase; IDBS). Ten quantitative parameters were calculated that define various aspects of the store-operated calcium entry response. These parameters are as follows:
Up slope: linear regression of the increase in RFU from 2 to 30 sec after addition of Ca^2+.
Combinations of these parameters were used to characterize the compounds of Formula (I). Compounds were retested under identical conditions to confirm their activity. Compounds with confirmed activity were then analyzed for concentration-dependent effects, and subsequently, those compounds displaying concentration-dependent effects were categorized as compounds that modulate intracellular calcium.

The target in assay [2] is T1, hOrail/hSTIM1 (Homo sapiens, UniProt Q96D31).
T1 construct: expressed in transfected cells
The assay can be described thus: Recombinant hOrail/hSTIM1-dependent Ca2+ entry in stable cells. In kind it is cell-based. To be noted: FIG. 14.

Assay [3] deals with T1, hOrail/hSTIM1. The assay can be described thus: Monster ICRAC in cells stably overexpressing hOrail/hSTIM1. In kind it is cell-based. The note with it: FIG. 15.
Assay [4] has as its system HEK-Zeo control cells. The note with it: read-out: IC50 for inhibition of calcium entry, HEK-Zeo control cells; thapsigargin-mediated store depletion, readdition of external calcium. The procedure: (§1) To test whether the Ca^2+ entry pathway activated by STIM1 overexpression is pharmacologically similar to endogenous SOCE, HEK[STIM1] cells were pre-incubated with increasing doses of 2-APB and STIM1-dependent Ca^2+ entry was measured.

The subject of assay [5] is HEK[STIM1] cells. The assay can be described thus: STIM1-dependent Ca2+ entry in STIM1-overexpressing cells. In kind it is cell-based, human. The procedure:
as §1

The text below walks through data of patent publication US8524765B2, “Compounds that modulate intracellular calcium” (Calcimedica, Inc., priority 2007, dated 2013).

Molecules are shown by their SMILES. “Also recorded” adds a separate entry of the source. Like-named read-outs stand apart in the source and are kept apart here.

T1 sequence (Q96D31 whole entry): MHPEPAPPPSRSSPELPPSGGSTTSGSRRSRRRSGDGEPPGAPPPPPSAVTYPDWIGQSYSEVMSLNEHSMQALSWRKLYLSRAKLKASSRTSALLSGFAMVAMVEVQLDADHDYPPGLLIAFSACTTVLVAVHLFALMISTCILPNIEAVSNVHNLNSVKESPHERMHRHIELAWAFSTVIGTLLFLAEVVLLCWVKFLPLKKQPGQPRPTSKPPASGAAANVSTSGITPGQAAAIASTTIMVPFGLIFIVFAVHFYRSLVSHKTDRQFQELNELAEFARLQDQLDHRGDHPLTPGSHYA
T1 sequence (Q13586 23-685 partner): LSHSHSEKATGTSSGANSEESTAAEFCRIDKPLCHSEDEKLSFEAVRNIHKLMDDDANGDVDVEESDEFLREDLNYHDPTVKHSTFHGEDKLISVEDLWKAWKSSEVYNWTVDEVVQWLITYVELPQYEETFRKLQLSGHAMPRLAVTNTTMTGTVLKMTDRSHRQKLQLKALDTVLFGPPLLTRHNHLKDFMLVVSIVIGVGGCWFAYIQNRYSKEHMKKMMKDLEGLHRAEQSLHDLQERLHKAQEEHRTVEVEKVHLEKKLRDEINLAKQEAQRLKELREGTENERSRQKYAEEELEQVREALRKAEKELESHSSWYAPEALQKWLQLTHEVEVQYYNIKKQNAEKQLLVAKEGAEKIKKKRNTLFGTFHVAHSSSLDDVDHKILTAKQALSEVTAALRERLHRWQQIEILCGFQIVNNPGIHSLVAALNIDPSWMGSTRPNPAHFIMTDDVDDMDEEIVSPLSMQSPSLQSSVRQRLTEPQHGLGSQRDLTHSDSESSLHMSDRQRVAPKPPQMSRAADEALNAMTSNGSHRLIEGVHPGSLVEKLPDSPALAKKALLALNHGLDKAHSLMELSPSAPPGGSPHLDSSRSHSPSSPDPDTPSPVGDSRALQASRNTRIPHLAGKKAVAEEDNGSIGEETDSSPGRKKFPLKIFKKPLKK

Consider `O=C(Nc1scc(-c2ccc(Cl)cc2)c1C(=O)O)c1ccc(F)cc1` [Compound 2, 2-(4-fluorobenzamido)-4-(4-chlorophenyl)thiophene-3-carboxylic acid], for which the IC50 (usually the concentration that inhibits the measured activity by half) in assay [1] (Rattus norvegicus) was determined as 2.3 µM. Moreover, the “effect on recombinant hOrail/hSTIM1-dependent Ca2+ entry” value in assay [2] is “inhibition”. Further, in assay [3], the “effect on Monster ICRAC” value is “inhibit”. Regarding `NCCOB(c1ccccc1)c1ccccc1` [Compound 2-APB, 2-aminoethoxydiphenyl borate], the IC50 in assay [4] was 11.8 µM; in assay [5] (HEK[STIM1] cells, entry induced by pretreatment in Ca2+-free buffer, read-out: IC50 for inhibition of Ca2+ entry in the absence of Tg-dependent store depletion), 10.8 µM; in assay [5] (thapsigargin-mediated store depletion, readdition of external calcium, read-out: IC50 for inhibition of calcium entry, HEK[STIM1] cells), 10.5 µM. The “effect on STIM1-dependent Ca2+ entry” value in assay [5] (HEK293 overexpressing STIM1, no Tg store depletion, FIG. 13) was “biphasic effect; also recorded: both enhances (at low concentrations) and inhibits (at high concentrations)”. On to `O=C(Nc1scc(-c2ccc(Cl)c(Cl)c2)c1C(=O)O)c1ccc(F)cc1` [Compound 3, 2-(4-fluorobenzamido)-4-(3,4-dichlorophenyl)thiophene-3-carboxylic acid], for which, in assay [1] (Rattus norvegicus), the inhibition (usually the relative decrease from the control value, in per cent) at 10 µM is > 70% and the IC50 was 3.3 µM.

On to `O=C(Nc1scc(-c2ccc(C(F)(F)F)cc2)c1C(=O)O)c1ccc(F)cc1` [Compound 4, 2-(4-fluorobenzamido)-4-(4-trifluoromethylphenyl)thiophene-3-carboxylic acid], for which the inhibition at 10 µM in assay [1] (Rattus norvegicus) is > 70%.

Take `O=C(Nc1scc(-c2ccc(Br)cc2)c1C(=O)O)c1cccc(F)c1` [Compound 11, 2-(3-fluorobenzamido)-4-(4-bromophenyl)thiophene-3-carboxylic acid]: in assay [1] (Rattus norvegicus), the IC50 stood at 0.8 µM. `O=C(Nc1scc(-c2ccc(Br)cc2)c1C(=O)O)c1ccc(Cl)cc1` [Compound 12, 2-(4-chlorobenzamido)-4-(4-bromophenyl)thiophene-3-carboxylic acid]: the IC50 in assay [1] (Rattus norvegicus) was 1.2 µM.

Regarding `O=C(Nc1scc(-c2ccc(Br)cc2)c1C(=O)O)c1cc2ccccc2s1` [Compound 14, 2-(benzothien-2-ylamido)-4-(4-bromophenyl)thiophene-3-carboxylic acid], in assay [1], the % Inhibition – broadly, how much of the control response was suppressed – at 10 μM is >70% and the IC50 was determined as 2.4 µM. On to `Cc1cccc(C(=O)Nc2scc(-c3ccc(Br)cc3)c2C(=O)O)c1` [Compound 15, 2-(3-methylbenzamido)-4-(4-bromophenyl)thiophene-3-carboxylic acid], for which, in assay [1] (Rattus norvegicus), the IC50 was 2.6 µM. For `Cc1ccc(-c2csc(NC(=O)c3ccc(Br)cc3)c2C(=O)O)cc1` [Compound 16, 2-(4-bromobenzamido)-4-(4-methylphenyl)thiophene-3-carboxylic acid], the IC50 in assay [1] (Rattus norvegicus) is 0.6 µM. Regarding `O=C(Nc1scc(-c2ccc(Cl)cc2)c1C(=O)O)c1ccc(Br)cc1` [Compound 17, 2-(4-bromobenzamido)-4-(4-chlorophenyl)thiophene-3-carboxylic acid], in assay [1] (Rattus norvegicus), the inhibition at 10 µM was > 70% and the IC50 stood at 1 µM. For the compound `O=C(Nc1scc(-c2ccc(Br)cc2)c1C(=O)O)c1ccc(Br)cc1` [Compound 18, 2-(4-bromobenzamido)-4-(4-bromophenyl)thiophene-3-carboxylic acid], in assay [1] (Rattus norvegicus), the inhibition at 10 µM is > 70% and the IC50 is 1.3 µM.

As for `O=C(Nc1scc(-c2cc(Cl)cc(Cl)c2)c1C(=O)O)c1ccc(Br)cc1` [Compound 19, 2-(4-bromobenzamido)-4-(3,5-dichlorophenyl)thiophene-3-carboxylic acid], in assay [1] (Rattus norvegicus), the inhibition at 10 µM was > 70% and the IC50 turned out to be 1.6 µM. On to `O=C(Nc1scc(-c2cccc(Cl)c2)c1C(=O)O)c1ccc(Br)cc1` [Compound 20, 2-(4-bromobenzamido)-4-(3-chlorophenyl)thiophene-3-carboxylic acid], for which, in assay [1] (Rattus norvegicus), the inhibition at 10 µM was < 70% and the IC50 was found to be 4 µM. The corresponding values for `Cc1ccc(-c2csc(NC(=O)c3ccc(Br)cc3)c2C(=O)O)cc1C` [Compound 21, 2-(4-bromobenzamido)-4-(3,4-dimethylphenyl)thiophene-3-carboxylic acid] are > 70% and 4.6 µM. `O=C(Nc1scc(-c2ccc(Cl)cc2)c1C(=O)O)c1cccc(F)c1` [Compound 25, 2-(3-fluorobenzamido)-4-(4-chlorophenyl)thiophene-3-carboxylic acid]: in assay [1] (Rattus norvegicus), the IC50 is 1.3 µM. With `O=C(Nc1scc(-c2ccc(Cl)cc2Cl)c1C(=O)O)c1cccc(F)c1` [Compound 26, 2-(3-fluorobenzamido)-4-(2,4-dichlorophenyl)thiophene-3-carboxylic acid], in assay [1] (Rattus norvegicus), the inhibition at 10 µM is > 70% and the IC50 stood at 2.1 µM. As for `O=C(Nc1scc(-c2ccc(Cl)cc2)c1C(=O)O)c1ccc(Cl)cc1` [Compound 33, 2-(4-chlorobenzamido)-4-(4-chlorophenyl)thiophene-3-carboxylic acid], the IC50 in assay [1] (Rattus norvegicus) was 1 µM. The same measure, in the same setting: the figure for `Cc1ccc(-c2csc(NC(=O)c3ccc(Cl)cc3)c2C(=O)O)cc1` [Compound 34, 2-(4-chlorobenzamido)-4-(4-methylphenyl)thiophene-3-carboxylic acid] is 1 µM. For `O=C(Nc1scc(-c2ccc(Cl)cc2Cl)c1C(=O)O)c1ccc(Cl)cc1` [Compound 35, 2-(4-chlorobenzamido)-4-(2,4-dichlorophenyl)thiophene-3-carboxylic acid], in assay [1] (Rattus norvegicus), the inhibition at 10 µM is > 70% and the IC50 was 1.6 µM. On to `O=C(Nc1scc(-c2ccc(F)cc2)c1C(=O)O)c1ccc(Cl)cc1` [Compound 36, 2-(4-chlorobenzamido)-4-(4-fluorophenyl)thiophene-3-carboxylic acid], for which the IC50 in assay [1] (Rattus norvegicus) is 2.4 µM. In the case of `O=C(Nc1scc(-c2ccc(Cl)c(Cl)c2)c1C(=O)O)c1ccc(Cl)cc1` [Compound 37, 2-(4-chlorobenzamido)-4-(3,4-dichlorophenyl)thiophene-3-carboxylic acid], in assay [1] (Rattus norvegicus), the inhibition at 10 µM was < 70% and the IC50 is 3 µM. As for `Cc1ccc(-c2csc(NC(=O)c3ccc(Cl)cc3)c2C(=O)O)cc1C` [Compound 38, 2-(4-chlorobenzamido)-4-(3,4-dimethylphenyl)thiophene-3-carboxylic acid], in assay [1] (Rattus norvegicus), the inhibition at 10 µM was < 70% and the IC50 was 3.8 µM. Consider `O=C(Nc1scc(-c2ccc(Cl)cc2)c1C(=O)O)c1cc2ccccc2s1` [Compound 43, 2-(benzothien-2-ylamido)-4-(4-chlorophenyl)thiophene-3-carboxylic acid], for which, in assay [1], the “% Inhibition at 10 μM” value is listed as >70% and the IC50 stood at 1 µM. For `Cc1ccc(-c2csc(NC(=O)c3cc4ccccc4s3)c2C(=O)O)cc1` [Compound 44, 2-(benzothien-2-ylamido)-4-(4-methylphenyl)thiophene-3-carboxylic acid] the same measures were <70% and 1.3 µM. The corresponding values for `O=C(Nc1scc(-c2ccc(Cl)cc2Cl)c1C(=O)O)c1cc2ccccc2s1` [Compound 45, 2-(benzothien-2-ylamido)-4-(2,4-dichlorophenyl)thiophene-3-carboxylic acid] are >70% and 2.4 µM. In the case of `O=C(Nc1scc(-c2cccc(Cl)c2)c1C(=O)O)c1cc2ccccc2s1` [Compound 46, 2-(benzothien-2-ylamido)-4-(3-chlorophenyl)thiophene-3-carboxylic acid], in assay [1], the “% Inhibition at 10 μM” value is reported as >70% and the IC50 came out at 10.7 µM. With `Cc1cccc(C(=O)Nc2scc(-c3ccc(Cl)cc3)c2C(=O)O)c1` [Compound 50, 2-(3-methylbenzamido)-4-(4-chlorophenyl)thiophene-3-carboxylic acid], the IC50 in assay [1] (Rattus norvegicus) was determined as 1.2 µM. Take `Cc1ccc(-c2csc(NC(=O)c3cccc(C)c3)c2C(=O)O)cc1` [Compound 51, 2-(3-methylbenzamido)-4-(4-methylphenyl)thiophene-3-carboxylic acid]: the IC50 in assay [1] (Rattus norvegicus) is 3 µM.
